According to article PMC11054269, “Synergistic Biomedical Potential and Molecular Docking Analyses of Coumarin–Triazole Hybrids as Tyrosinase Inhibitors: Design, Synthesis, In Vitro Profiling, and In Silico Studies” (Pharmaceuticals, 2024):
“And” between values parts separate entries of the source, which are not always exact repeats. Equal entries are not always repeated. Where two headings read alike, the source gives them in different places.

Key:
tyrosinase = assay: spectrophotometric tyrosinase inhibition assay with L-DOPA as substrate; format: biochemical, Bacillus subtilis NCTC 10400; settings: for %Age Inhibition: test concentration not given
Description: The synthesized coumarin–triazole hybrids were subjected to spectrophotometric assay for tyrosinase by employing […]. The tyrosine enzyme was extracted from Bacillus subtilis NCTC 10400. The anti-tyrosinase potential of all the coumarin–triazole hybrids was screened by using L-DOPA (levodopa) as the substrate. All the coumarin derivatives were dissolved in DMSO. […] The coumarin derivatives along with the tyrosine enzyme (0.5 mg/mL) were pre-incubated for 10 min in buffer at 25 °C. Pre-incubation of tyrosinase and coumarin derivative was followed by the addition of levodopa (0.5 mM), and the reaction was monitored by absorbance measurement at 475 nm. The IC50 values were calculated by interpolation of the dose–response curves. The following formula was applied to calculate the percentage inhibition of tyrosinase:%age Inhibition = (B − S/B) × 100 where S and B are the absorbance values for the sample and blank, respectively.

[1] = L-DOPA 0.5 mM, pH 6.8, 25 °C, means ± SEs (n = 3), read-out: IC50
[2] = L-DOPA substrate, unit inferred, read-out: IC50 (unit inferred)

Row | SMILES | melting point [°C] | IC50 (tyrosinase; [1]) | %Age Inhibition (tyrosinase; L-DOPA 0.5 mM, pH 6.8, 25 °C) | IC50 (tyrosinase; [2]) [µM]
1 | COc1ccc(-n2c(SCC(=O)Oc3ccc4c(C)cc(=O)oc4c3)nnc2-c2cc3cc(Br)ccc3o2)cc1 [Compound 17e, 4-Methyl-2-oxo-2H-chromen-7-yl-2-((5-(5-bromobenzofuran-2-yl)-4-(4-methoxyphenyl)-4H-1,2,4-triazol-3-yl)thio)acetate] | 220 | 0.339 µM and 0.33 µM | 30.85 ± 0.15% | 0.339 ± 0.08
2 | COc1ccc(-n2c(SCC(=O)Oc3ccc4c(C)cc(=O)oc4c3)nnc2-c2cc3cccc(OC)c3o2)cc1 [Compound 17c, 4-Methyl-2-oxo-2H-chromen-7-yl-2-((5-(7-methoxybenzofuran-2-yl)-4-(4-methoxyphenyl)-4H-1,2,4-triazol-3-yl)thio)acetate] | 137 | 13 ± 0.32 µM | 5.11 ± 0.15% | 13 ± 0.32
3 | Cc1cc(=O)oc2cc(OC(=O)CSc3nnc(-c4cc5c(ccc6ccccc65)o4)n3-c3ccccc3)ccc12 [Compound 17h, 4-Methyl-2-oxo-2H-chromen-7-yl-2-((5-(naphtho[2,1-b]furan-2-yl)-4-phenyl-4H-1,2,4-triazol-3-yl)thio)acetate] | – | 5.13 ± 0.05 µM | 30.62 ± 0.33% | –
4 | Cc1cc(=O)oc2cc(OC(=O)CSc3nnc(-c4cc5ccccc5o4)n3-c3ccccc3)ccc12 [Compound 17a, 4-Methyl-2-oxo-2H-chromen-7-yl-2-((5-(benzofuran-2-yl)-4-phenyl-4H-1,2,4-triazol-3-yl)thio)acetate] | 152 | 8.13 ± 0.13 µM | 12.023 ± 0.21% and 12.02 ± 0.21% | 8.14 ± 0.13
5 | Cc1cc(=O)oc2cc(OC(=O)CSc3nnc(-c4cc5cc(Br)ccc5o4)n3-c3ccccc3)ccc12 [Compound 17d, 4-Methyl-2-oxo-2H-chromen-7-yl-2-((5-(5-bromobenzofuran-2-yl)-4-phenyl-4H-1,2,4-triazol-3-yl)thio)acetate] | 232 | 5.89 ± 0.09 µM | 23.097 ± 0.13% and 23.09 ± 0.13% | 5.89 ± 0.09

Results, then the compound that gave them:

Row | melting point [°C] | IC50 (tyrosinase; [1]) | %Age Inhibition (tyrosinase; L-DOPA 0.5 mM, pH 6.8, 25 °C) | IC50 (tyrosinase; [2]) [µM] | SMILES
6 | 226 | 3.15 µM and 3.14 µM | 36.134 ± 0.21% and 36.13 ± 0.21% | 3.15 ± 0.23 | Cc1cc(=O)oc2cc(OC(=O)CSc3nnc(-c4cc5cc(Cl)ccc5o4)n3-c3ccccc3)ccc12 [Compound 17f, 4-Methyl-2-oxo-2H-chromen-7-yl-2-((5-(5-chlorobenzofuran-2-yl)-4-phenyl-4H-1,2,4-triazol-3-yl)thio)acetate]
7 | 200 | 3.98 µM | 31.0609 ± 0.19% and 31.060 ± 0.19% | 3.98 ± 0.12 | COc1ccc(-n2c(SCC(=O)Oc3ccc4c(C)cc(=O)oc4c3)nnc2-c2cc3cc(Cl)ccc3o2)cc1 [Compound 17g, 4-Methyl-2-oxo-2H-chromen-7-yl2-((5-(5-chlorobenzofuran-2-yl)-4-(4-methoxyphenyl)-4H-1,2,4-triazol-3-yl)thio)acetate]
8 | – | – | 6.79 ± 0.58% | – | O=c1cc(CO)occ1O [Kojic acid, reference compound]
9 | 140 | 14.1 ± 0.17 µM | 6.3009 ± 0.14% and 6.30 ± 0.14% | 14.1 ± 0.17 | COc1cccc2cc(-c3nnc(SCC(=O)Oc4ccc5c(C)cc(=O)oc5c4)n3-c3ccccc3)oc12 [Compound 17b, 4-Methyl-2-oxo-2H-chromen-7-yl-2-((5-(7-methoxybenzofuran-2-yl)-4-phenyl-4H-1,2,4-triazol-3-yl)thio)acetate]
